Some test systems named below: MDA-MB-231 breast; P388/ADR leukemia; RXF-631 renal; LXFL 529 NSCLC.
Holding throughout (test): NCI tumour cell line growth inhibition, 48 h

Consider eight compounds from PubChem BioAssay (NCI).

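Step 1: Grow cells in 96-well plates. Step 2: Expose to compound for 48 hours at 5 concentrations. Step 3: Interpolate endpoints linearly; if unreached, use highest concentration. GI50: concentration for 50% inhibition of growth. TGI: total growth inhibition.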

In the case of `O=C1c2ccccc2-c2ccc(NC(=O)C3CCCCC3C(=O)O)cc21` (stereo not given), in the experiment with MDA-MB-231 breast, the TGI was > 100 µM. Regarding `O=CNc1cccc2c3c([nH]c12)CCCCCC3`, the TGI in the experiment on P388/ADR leukemia was > 100 µM. With `CC(C)(C)OC(=O)NC(Cc1ccccc1)C(=O)N[C@H]1c2ccsc2/C(=N/O)[C@H]1O` (stereo not given in full), the TGI in the experiment on MDA-MB-231 breast was > 100 µM. For `CCOC(=O)C1C(c2cc(OC)c(O)c(OC)c2)c2cc3c(cc2OC1(C)O)OCO3` (stereo not given), in the experiment on RXF-631 renal, the TGI was > 100 µM. As for `C=C1C(=O)O[C@H]2C1[C@H](OC(=O)/C(C)=C\COC(C)=O)C[C@]1(CO1)[C@@H]1[C@H](O)[C@H]3O[C@@]3(C)[C@@H]12` (stereo not given in full), in the experiment on P388/ADR leukemia, the TGI is 30 µM.

For the compound `Cc1cc(NS(=O)(=O)c2ccc(Nc3c4ccccc4nc4c(C(=O)NCCN(C)C)ccc(Cl)c34)cc2)no1`, the values for the TGI in the experiment on LXFL 529 NSCLC and in the experiment with RXF-631 renal were 19.2 µM and 20.9 µM, respectively. With `Cc1ccc2c(c1)c(=O)c1c(NCCN(C)C)ccc3nnn2c31`, in the experiment on LXFL 529 NSCLC, the TGI was 20.1 µM. For the compound `COC(=O)C(C)N1C(=O)c2ccccc2I1OC(C)=O` (stereo not given), in the experiment with MDA-MB-231 breast, the GI50 was 25.4 µM and the TGI was > 100 µM.
